Results as given in paper PMC6941357, “An in vitro toolbox to accelerate anti-malarial drug discovery and development” (Malaria Journal, 2020).
Where “and” joins values, the source holds several entries; their conditions need not be identical. Identical values can stand only once. Like-named read-outs stand apart in the source and are kept apart here. Marks after values point to notes of the source that are not given here.

Key:
[1] = Bidirectional permeability across Caco-2 cell monolayers; conditions: human
How it was run: (§1)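 Donor and acceptor concentrations measured by LC–MS to give Papp, mass balance and efflux ratio (mean B–A over A–B Papp). Media were pH 7.4 HEPES-buffered HBSS or human plasma on both sides; for plasma, Papp used the donor fraction unbound. Donor contained 0.1% v/v DMSO.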

human liver microsomes = assay: in vitro; conditions: for HLM CLint: microsomes
How it was run: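 Intrinsic clearance (µL/min/mg protein) came from the first-order substrate-depletion rate in human liver microsomes, using only the initial log-linear phase where kinetics deviated. Samples were quenched at 2, 5, 15, 30 and 60 min and quantified by LC–MS. Unbound CLint was obtained by dividing by microsomal fu.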

[2] = Solubility in biorelevant media; conditions: for solubility at 1 h / Solubility FaSSGF (1 h) / Solubility FaSSIF-V2 (5–6 h) / Solubility FeSSIF-V2 (5–6 h) / Solubility PBS7.4 (5–6 h): 37 °C; for solubility at 1 h: fassgf or other biorelevant; for solubility at 1 h / solubility: thermodynamic from solid
How it was run: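 LC–MS quantification of supernatants, after two centrifugations, in triplicate against calibration standards. Media: FaSSGF sampled at 1 h; FaSSIF-V2, FeSSIF-V2 and pH 7.4 PBS sampled at 5–6 h; all at 37 °C on an orbital mixer at 600 rpm.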

[3] = Octanol/pH 7.4 buffer partition coefficient, shake flask; conditions: for logD: pH 7.4; for Measured Log D7.4: shake flask, 37 °C
How it was run: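 Both phases were measured by LC-MS, the aqueous phase after re-centrifugation, and the partition coefficient was taken as the octanol-to-buffer concentration ratio over two sampling times. Equal volumes of octanol, holding compound at two dilutions of a 3-30 mg/mL stock, and pH 7.4 phosphate/NaCl buffer were mixed at 37 °C.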

[4] = target: T1, Albumax medium (lipid rich bovine serum albumin) (Bos taurus, UniProt P02769); assay: Binding in Albumax medium via ultracentrifugation; type: in vitro ADME; conditions: for fraction unbound at […], 500 ng/mL: bovine, pH 7.4
T1 construct: purchased Gibco, Thermo Fisher Scientific
How it was run: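 Unbound fraction (fu) taken as protein-free supernate concentration over total concentration after ultracentrifuging compound-spiked Albumax at 37 °C (5% or 10% CO2, or air). Analysis used 1:1 mixing with the opposite blank matrix against a common pH 7.4 calibration; degradation judged by start versus end Ctotal.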

Caco-2 cell monolayers = assay: Bidirectional permeability across Caco-2 cell monolayers; conditions: for efflux ratio: mean B–A/A–B Papp
How it was run: as §1

human plasma = conditions: methods UF, ED, EP or not described per compound, ref [6]–[22] of Additional file 1; cited from earlier work
[5] = phosphate buffered saline pH 7.4, 37 °C, pH 7.4, aqueous buffer
[6] = matrix: human plasma, corrected for fu
[7] = Caco-2, pH 7.4, A–B Papp, matrix: pH 7.4 buffer

T1 sequence (P02769 25-607): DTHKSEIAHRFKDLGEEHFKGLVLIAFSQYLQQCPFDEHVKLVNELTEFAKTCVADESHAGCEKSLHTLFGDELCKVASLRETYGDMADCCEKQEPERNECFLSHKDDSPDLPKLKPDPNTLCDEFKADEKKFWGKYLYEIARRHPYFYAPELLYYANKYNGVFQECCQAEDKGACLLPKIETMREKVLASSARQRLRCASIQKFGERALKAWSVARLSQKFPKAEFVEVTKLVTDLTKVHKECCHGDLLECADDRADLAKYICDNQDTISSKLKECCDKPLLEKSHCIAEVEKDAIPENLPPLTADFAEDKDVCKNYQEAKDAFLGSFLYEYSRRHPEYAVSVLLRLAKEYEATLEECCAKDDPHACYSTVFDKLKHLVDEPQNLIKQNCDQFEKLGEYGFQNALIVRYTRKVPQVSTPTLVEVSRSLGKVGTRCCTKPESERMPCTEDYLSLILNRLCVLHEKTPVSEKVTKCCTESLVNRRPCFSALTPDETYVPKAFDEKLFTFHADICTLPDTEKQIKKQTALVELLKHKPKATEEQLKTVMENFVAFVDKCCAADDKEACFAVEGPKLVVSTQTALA

CC(C)(N)CNC(=O)C[C@H]1CC[C@]2(CC1)OO[C@]1(O2)C2CC3CC(C2)CC1C3 [OZ277, Arterolane]
Papp B→A ([1]; Caco-2): 70 ± 0.38 ×10⁻⁶ cm/s | Papp A→B ([1]; Caco-2, A–B Papp, matrix: human plasma, corrected for fu): 42 ± 2.8 ×10⁻⁶ cm/s | Unbound CLint (human liver microsomes; human, 1 µM, pH 7.4): < 159 µL/min/mg | FaSSGF solubility ([2]; FaSSGF): > 2000 µg/mL | solubility at 1 h ([2]; FaSSGF): > 2000 µg/mL and > 5000 µM | FaSSIF solubility ([2]; FaSSIF): > 2000 µg/mL | solubility ([2]; FaSSIF-V2, 37 °C, fassif): > 2000 µg/mL and > 5100 µM | FeSSIF solubility ([2]; FeSSIF): > 2000 µg/mL | solubility ([2]; FeSSIF-V2, 37 °C, fessif): > 2000 µg/mL and > 5000 µM | solubility [2, 5]: 198 µg/mL and 504 µM | logD ([3]; octanol/pH 7.4 buffer): 2.6 | logD ([3]; octanol/pH 7.4 phosphate buffered saline): 2.6 | fraction unbound at […], 500 ng/mL ([4]; isolated protein): 0.29 ± 0.021

COc1cc2[nH]c(C)c(-c3ccc(Oc4ccc(OC(F)(F)F)cc4)cc3)c(=O)c2cc1Cl [ELQ300]
A–B Papp (Caco-2 cell monolayers; [6]): > 300 10^−6 cm/s | B–A Papp (Caco-2 cell monolayers; [6]): > 300 10^−6 cm/s | Unbound CLint (human liver microsomes): < 3500^c µL/min/mg | HLM CLint (human liver microsomes; human): < 7^b µL/min/mg | Solubility FaSSGF (1 h) [2]: 0.929 µg/mL and 1.95 µM | Solubility FaSSIF-V2 (5–6 h) [2]: 0.524 µg/mL and 1.10 µM | Solubility FeSSIF-V2 (5–6 h) [2]: 0.065 µg/mL and 0.137 µM | Solubility PBS7.4 (5–6 h) [2]: 0.102 µg/mL and 0.214 µM

N#Cc1cc(NC(=O)[C@H]2c3ccccc3C(=O)N(CC(F)(F)F)[C@@H]2c2cccnc2)ccc1F [SJ733]
Papp B→A ([1]; Caco-2, pH 7.4): 50 ± 2 ×10⁻⁶ cm/s | Papp A→B [1, 7]: 14 ×10⁻⁶ cm/s | A–B Papp (Caco-2 cell monolayers; matrix: pH 7.4 buffer): 13.4 10^−6 cm/s | solubility at 1 h ([2]; FaSSGF): > 2000 µg/mL and > 4270 µM | solubility ([2]; FaSSIF-V2, 37 °C, fassif): 101 µg/mL and 216 µM | solubility ([2]; FeSSIF-V2, 37 °C, fessif): 119 µg/mL and 254 µM | solubility [2, 5]: 115 µg/mL and 246 µM | logD ([3]; octanol/pH 7.4 buffer): 3.9 | fraction unbound at […], 500 ng/mL ([4]; isolated protein): 0.4 ± 0.04

CC(C)(C)NCc1cc(Nc2ccnc3cc(Cl)ccc23)c2c(c1O)CCCC2 [Naphthoquine]
Unbound CLint (human liver microsomes): 68.6 µL/min/mg | HLM CLint (human liver microsomes; human): 14.4 µL/min/mg | Solubility FaSSGF (1 h) [2]: > 2000 µg/mL and > 4880 µM | Solubility FaSSIF-V2 (5–6 h) [2]: 410 µg/mL and 1000 µM | Solubility FeSSIF-V2 (5–6 h) [2]: 941 µg/mL and 2300 µM | Solubility PBS7.4 (5–6 h) [2]: 28.5 µg/mL and 69.5 µM | Measured Log D7.4 ([3]; octanol/pH 7.4 buffer): 4.18 | Fraction unbound, Albumax [4]: 0.27 ± 0.035

COc1ncnc(NS(=O)(=O)c2ccc(N)cc2)c1OC [Sulfadoxine]
Papp B→A ([1]; Caco-2, pH 7.4): 23 ± 2.8 ×10⁻⁶ cm/s | Papp A→B [1, 7]: 15 ± 2.5 ×10⁻⁶ cm/s | solubility at 1 h ([2]; FaSSGF): 324 µg/mL and 1040 µM | solubility ([2]; FaSSIF-V2, 37 °C, fassif): 858 µg/mL and 2770 µM | solubility ([2]; FeSSIF-V2, 37 °C, fessif): 474 µg/mL and 1530 µM | solubility [2, 5]: > 1900 µg/mL and > 6400 µM | fraction unbound at […], 500 ng/mL ([4]; isolated protein): 0.5 ± 0.03 | Literature fu (human plasma): 0.05-0.1

CS(=O)(=O)O.FC1CCN(CCOc2ccc(C3CCC4(CC3)OOC3(OO4)C4CC5CC(C4)CC3C5)cc2)CC1 (stereo not shown) [TDD-E209]
A–B Papp (Caco-2 cell monolayers; [6]): > 300 10^−6 cm/s | B–A Papp (Caco-2 cell monolayers; [6]): > 300 10^−6 cm/s | Unbound CLint (human liver microsomes): 85,000 µL/min/mg | Solubility FaSSGF (1 h) [2]: 211 µg/mL and 421 µM | Solubility FaSSIF-V2 (5–6 h) [2]: 87.2 µg/mL and 174 µM | Solubility FeSSIF-V2 (5–6 h) [2]: > 2000 µg/mL and > 4000 µM | Solubility PBS7.4 (5–6 h) [2]: 0.056 µg/mL and 0.112 µM | Fraction unbound, Albumax [4]: 0.0070 ± 0.0010

CCc1nc(N)nc(N)c1OCCCOc1ccccc1CCC(=O)O.Cl [P218]
B–A Papp (Caco-2 cell monolayers; matrix: pH 7.4 buffer): 15 ± 1.7 10^−6 cm/s | efflux ratio (Caco-2 cell monolayers; matrix: pH 7.4 buffer): 21 | Unbound CLint (human liver microsomes): < 7.95^c µL/min/mg | HLM CLint (human liver microsomes; human): < 7^b µL/min/mg | Solubility FaSSGF (1 h) [2]: > 2000 µg/mL and > 5550 µM | Solubility FaSSIF-V2 (5–6 h) [2]: 408 µg/mL and 1130 µM | Solubility FeSSIF-V2 (5–6 h) [2]: 525 µg/mL and 1460 µM | Solubility PBS7.4 (5–6 h) [2]: 1070 µg/mL and 2960 µM | solubility in all media tested ([2]; FaSSGF, FaSSIF-V2, FeSSIF-V2, PBS pH 7.4): 400 to 500 µg/mL | Measured Log D7.4 ([3]; octanol/pH 7.4 buffer): 0.080 | Fraction unbound, Albumax [4]: 0.41 ± 0.022

CN(C)C[c-]1cccc1CNc1ccnc2cc(Cl)ccc12.[Fe+2].c1cc[cH-]c1 (stereo not shown) [Ferroquine]
A–B Papp (Caco-2 cell monolayers; [6]): 32 ± 6.8 10^−6 cm/s | B–A Papp (Caco-2 cell monolayers; [6]): 24 ± 4.1 10^−6 cm/s | efflux ratio (Caco-2 cell monolayers; matrix: human plasma): 0.8 | Unbound CLint (human liver microsomes): 108 µL/min/mg | HLM CLint (human liver microsomes; human): 29.2 µL/min/mg | Solubility FaSSGF (1 h) [2]: > 2000 µg/mL and > 4600 µM | Solubility FaSSIF-V2 (5–6 h) [2]: 320 µg/mL and 738 µM | Solubility FeSSIF-V2 (5–6 h) [2]: > 2000 µg/mL and > 4600 µM | Solubility PBS7.4 (5–6 h) [2]: 4.9 µg/mL and 11 µM | Measured Log D7.4 ([3]; octanol/pH 7.4 buffer): 3.39 | Fraction unbound, Albumax [4]: 0.52 ± 0.031

COc1cc(N[C@H](C)CCCN)c2nccc(C)c2c1Oc1ccc(Cl)c(Cl)c1 [NPC1161B]
A–B Papp (Caco-2 cell monolayers; [6]): > 300 10^−6 cm/s | B–A Papp (Caco-2 cell monolayers; [6]): > 300 10^−6 cm/s | HLM CLint (human liver microsomes; human): < 7^b µL/min/mg | Solubility FaSSGF (1 h) [2]: 1520 µg/mL and 3500 µM | Solubility FaSSIF-V2 (5–6 h) [2]: 19.9 µg/mL and 45.8 µM | Solubility FeSSIF-V2 (5–6 h) [2]: > 2000 µg/mL and > 4600 µM | Solubility PBS7.4 (5–6 h) [2]: 5.44 µg/mL and 12.5 µM | Fraction unbound, Albumax [4]: 0.035 ± 0.0020

Clc1ccc2c(N3CCN(CCCN4CCN(c5ccnc6cc(Cl)ccc56)CC4)CC3)ccnc2c1 [Piperaquine]
solubility at 1 h ([2]; FaSSGF): > 2000 µg/mL and > 3700 µM | solubility ([2]; FaSSIF-V2, 37 °C, fassif): 103 µg/mL and 192 µM | solubility ([2]; FeSSIF-V2, 37 °C, fessif): 60.7 µg/mL and 113 µM | solubility [2, 5]: < 0.5 µg/mL and < 0.9 µM | fraction unbound at […], 500 ng/mL ([4]; isolated protein): 0.019 ± 0.004 | Literature fu (human plasma): < 0.001

CCCCN(CCCC)CC(O)c1cc(Cl)cc2c1-c1ccc(Cl)cc1/C2=C/c1ccc(Cl)cc1 (stereo not shown) [Lumefantrine]
solubility at 1 h ([2]; FaSSGF): 12.6 µg/mL and 23.8 µM | solubility ([2]; FaSSIF-V2, 37 °C, fassif): 0.063 µg/mL and 0.119 µM | solubility ([2]; FeSSIF-V2, 37 °C, fessif): 14.4 µg/mL and 27.2 µM | solubility [2, 5]: < 0.05 µg/mL and < 0.1 µM | Literature fu (human plasma): 0.003

C[C@H]1[C@H](N2CCS(=O)(=O)CC2)O[C@@H]2O[C@@]3(C)CC[C@H]4[C@H](C)CC[C@@H]1[C@@]24OO3 [Artemisone]
Papp B→A ([1]; Caco-2, pH 7.4): 47 ± 1.7 ×10⁻⁶ cm/s | efflux ratio ([1]; Caco-2, pH 7.4): 0.8 | Papp A→B [1, 7]: 58.8 ×10⁻⁶ cm/s | A–B Papp (Caco-2 cell monolayers; matrix: pH 7.4 buffer): 64.5 10^−6 cm/s | solubility at 1 h ([2]; FaSSGF): 89.1 µg/mL and 222 µM | solubility ([2]; FaSSIF-V2, 37 °C, fassif): 115 µg/mL and 286 µM | solubility ([2]; FeSSIF-V2, 37 °C, fessif): 278 µg/mL and 692 µM | solubility [2, 5]: 86.1 µg/mL and 214 µM | logD ([3]; octanol/pH 7.4 buffer): 2.82 | fraction unbound at […], 500 ng/mL ([4]; isolated protein): 0.46 ± 0.013

CCCCN(CCCC)CCC(O)c1cc2c(Cl)cc(Cl)cc2c2cc(C(F)(F)F)ccc12 (stereo not shown) [Halofantrine]
Unbound CLint (human liver microsomes; human, 1 µM, pH 7.4): 13,500 µL/min/mg | solubility at 1 h ([2]; FaSSGF): 12.7 µg/mL and 25.4 µM | solubility ([2]; FaSSIF-V2, 37 °C, fassif): 69.9 µg/mL and 140 µM | solubility ([2]; FeSSIF-V2, 37 °C, fessif): 739 µg/mL and 1480 µM | solubility [2, 5]: < 0.05 µg/mL and < 0.1 µM | fraction unbound at […], 500 ng/mL ([4]; Albumax medium): 0.008 ± 0.001

Cc1cc(Nc2ccc(C(F)(F)F)nc2)n2nc(C(C)(F)F)nc2n1 [DSM421]
Unbound CLint (human liver microsomes): < 9.09^c µL/min/mg | HLM CLint (human liver microsomes; human): < 7^b µL/min/mg | Solubility PBS7.4 (5–6 h) [2]: 85.5 µg/mL and 239 µM | Fraction unbound, Albumax [4]: 0.43 ± 0.020
